Test results as given in patent US11400079B2, “Antibacterial monobactams” (University of Notre Dame du Lac, priority 2017, dated 2022).
≈ marks a conversion by molar mass, not a printed value. Structures can show the parent of a compound that is named as a salt. Where two headings read alike, the source gives them in different places.

What was measured:
A. baumannii ATCC 17961 = experiment: MIC antibacterial assay (iron depleted media); format: cell-based; settings: Acinetobacter baumannii, ATCC17961
Procedure: (§1) General Methods. All solvents and reagents were obtained from commercial sources and used without further purification unless otherwise stated. General methods of purification of compounds involved the use column chromatography with silica gel (230-400 mesh) purchased from Silicycle, Quebec City, Canada. The reactions were monitored by TLC on precoated Merck 60 F254 silica gel plates and visualized using UV light (254 nm).
(§2) Antibacterial assays were performed using iron depleted media as described previously (J. Med. Chem. 2017, 60, 4577).

[1] = tested on: A. baumannii ATCC BAA 1797; experiment: MIC antibacterial assay (iron depleted media); format: cell-based; settings: Acinetobacter baumannii, BAA1797
Procedure: as §1, §2

[2] = tested on: A. baumannii ATCC17978-PNT-165; experiment: MIC antibacterial assay (iron depleted media); format: cell-based; settings: Acinetobacter baumannii
Procedure: as §1, §2

B. dolosa AU0018 = experiment: MIC antibacterial assay (iron depleted media); format: cell-based; settings: Burkholderia dolosa
Procedure: as §1, §2

[3] = tested on: Citrobacter freuendii ATCC 29063; experiment: MIC antibacterial assay (iron depleted media); format: cell-based; settings: ATCC29063
Procedure: as §1, §2

E. coli DCO = experiment: MIC antibacterial assay (iron depleted media); format: cell-based; settings: Escherichia coli
Procedure: as §1, §2

[4] = tested on: Enterobacter aerogenes X816; experiment: MIC antibacterial assay (iron depleted media); format: cell-based; settings: Klebsiella aerogenes
Procedure: as §1, §2

P. aeruginosa 01 = experiment: MIC antibacterial assay (iron depleted media); format: cell-based; settings: Pseudomonas aeruginosa
Procedure: as §1, §2

P. aeruginosa ARC 3506 = experiment: MIC antibacterial assay (iron depleted media); format: cell-based; settings: Pseudomonas aeruginosa, ARC3506
Procedure: as §1, §2

P. aeruginosa ISR-14-003 = experiment: MIC antibacterial assay (iron depleted media); format: cell-based
Procedure: as §1, §2

P. aeruginosa ISR-14-004 = experiment: MIC antibacterial assay (iron depleted media); format: cell-based
Procedure: as §1, §2

P. aeruginosa KW799/wt = experiment: MIC antibacterial assay (iron depleted media); format: cell-based; settings: Pseudomonas aeruginosa
Procedure: as §1, §2

Proteus mirabilis X235 = experiment: MIC antibacterial assay (iron depleted media); format: cell-based
Procedure: as §1, §2

S. aureus SG 511 = experiment: MIC antibacterial assay (iron depleted media); format: cell-based; settings: Staphylococcus aureus, SG511
Procedure: as §1, §2

[5] = tested on: Salmonella typhimurium ATCC13311; experiment: MIC antibacterial assay (iron depleted media); format: cell-based; settings: Salmonella enterica
Procedure: as §1, §2

A. baumannii ARC 5079 = experiment: MIC antibacterial assay (iron depleted media); format: cell-based, Acinetobacter baumannii
Procedure: as §1, §2

[6] = tested on: A. baumannii ATCC 17978-PNT-320; experiment: MIC antibacterial assay (iron depleted media); format: cell-based, Acinetobacter baumannii
Procedure: as §1, §2

[7] = tested on: A. baumannii ATCC BAA 1793; experiment: MIC antibacterial assay (iron depleted media); format: cell-based, Acinetobacter baumannii
Procedure: as §1, §2

A.baumannii ISR14-005 = experiment: MIC antibacterial assay (iron depleted media); format: cell-based, Acinetobacter baumannii
Procedure: as §1, §2

[8] = tested on: strong β-lactamase producing strains of P. aeruginosa (ARC 3502 and ARC 3506); experiment: Antibacterial activity, alone and in combination with tazobactam; format: cell-based; settings: co-administration with tazobactam
Procedure: as §1, §2

Gram-negative bacteria = experiment: Antibacterial activity against tested Gram-negative strains (summary in words); format: cell-based; settings: tested strains of Gram-negative bacteria
Procedure: as §1, §2

[9] = tested on: panel of Gram-negative and Gram-positive bacteria; experiment: Antibacterial activity against a panel of bacteria; format: cell-based
Procedure: as §1, §2

P. aeruginosa ARC 3502 = experiment: MIC antibacterial assay (iron depleted media); format: cell-based; settings: Pseudomonas aeruginosa, read-out: MIC
Procedure: as §1, §2

[10] = tested on: A. baumannii ATCC BAA 1800; experiment: MIC antibacterial assay (iron depleted media); format: cell-based, Acinetobacter baumannii; settings: tazobactam alone @ 10 μg/ml
Procedure: as §1, §2

[11] = Acinetobacter baumannii, ATCC17978
[12] = B. dolosa AU0018, MH2 broth with 160 μM bipyridyl added, read-out: MIC
[13] = Citrobacter freuendii ATCC 29063, MH2 broth with 160 μM bipyridyl added, read-out: MIC
[14] = E. coli DCO, MH2 broth with 160 μM bipyridyl added, read-out: MIC
[15] = Enterobacter aerogenes X816, MH2 broth with 160 μM bipyridyl added, read-out: MIC
[16] = P. aeruginosa 01, MH2 broth with 160 μM bipyridyl added, read-out: MIC
[17] = Pseudomonas aeruginosa, ISR14003, P. aeruginosa ISR-14-003 (clinical isolate), compound alone, MH2 broth with 160 μM bipyridyl added, read-out: MIC
[18] = Pseudomonas aeruginosa, ISR14004, P. aeruginosa ISR-14-004 (clinical isolate), compound alone, MH2 broth with 160 μM bipyridyl added, read-out: MIC
[19] = P. aeruginosa KW799/wt, MH2 broth with 160 μM bipyridyl added, read-out: MIC
[20] = Proteus mirabilis X235, MH2 broth with 160 μM bipyridyl added, read-out: MIC
[21] = S. aureus SG 511, MH2 broth with 160 μM bipyridyl added, read-out: MIC
[22] = Salmonella typhimurium ATCC13311, MH2 broth with 160 μM bipyridyl added, read-out: MIC
[23] = Acinetobacter baumannii, ISR14005, A. baumannii ISR14-005 (clinical isolate), compound alone, MH2 broth with 160 μM bipyridyl added, read-out: MIC

## CC(C)(O/N=C(\C(=O)NC1C(=O)N(S(=O)(=O)O)[C@H]1CSCCN)c1cnc(N)s1)C(=O)O (mixture of isomers) [Compound 39, (E)-3-(2-(2-aminothiazol-5-yl)-2-(((2-carboxypropan-2-yl)oxy)imino)acetamido)-2-(((2-ammonioethyl)thio)methyl)-4-oxoazetidine-1-sulfonate, potassium salt]
A. baumannii ATCC 17961
  MIC: > 50 µM
[1]
  MIC: 50 µM
[2]
  MIC: 50 µM
B. dolosa AU0018; AU0018
  MIC: > 50 µM
[3]; Citrobacter
  MIC: 3 µM
E. coli DCO
  MIC: 6 µM
[4]; X816
  MIC: 9.4 µM
P. aeruginosa 01; 01
  MIC: > 50 µM
P. aeruginosa ARC 3506
  MIC: > 50 µM
P. aeruginosa ISR-14-003; Pseudomonas aeruginosa, ISR14003
  MIC: > 50 µM
P. aeruginosa ISR-14-004; Pseudomonas aeruginosa, ISR14004
  MIC: > 50 µM
P. aeruginosa KW799/wt; KW799/WT
  MIC: > 50 µM
Proteus mirabilis X235; Proteus mirabilis, X235
  MIC: 3 µM
S. aureus SG 511
  MIC: > 50 µM
[5]
  MIC: 4.5 µM
A. baumannii ARC 5079; Acinetobacter baumannii, ARC5079
  MIC: > 50 µM
[6]; [11]
  MIC: > 50 µM
[7]; Acinetobacter baumannii, BAA1793
  MIC: 50 µM
A.baumannii ISR14-005; Acinetobacter baumannii, ISR14005
  MIC: > 50 µM
[8]
  effect of combination with tazobactam on activity (in words): no improvement
Gram-negative bacteria
  antibacterial activity (in words): generally improved activity

## C[C@H]1[C@H](NC(=O)/C(=N\OC(C)(C)C(=O)O)c2csc(N)n2)C(=O)N1S(=O)(=O)O [Aztreonam, aztreonam, reference compound]
[2]
  MIC: 12.5 µM (≈ 5.44 µg/mL)
B. dolosa AU0018; [12]
  MIC: > 50 µM
[3]; [13]
  MIC: 0.1 µM (≈ 0.0435 µg/mL)
E. coli DCO; [14]
  MIC: 0.1 µM (≈ 0.0435 µg/mL)
[4]; [15]
  MIC: 0.2 µM (≈ 0.0871 µg/mL)
P. aeruginosa 01; [16]
  MIC: 3 µM (≈ 1.31 µg/mL)
P. aeruginosa ISR-14-003; [17]
  MIC: 6 µM
P. aeruginosa ISR-14-003; Pseudomonas aeruginosa, ISR14003, P. aeruginosa ISR-14-003 (clinical isolate), in combination with tazobactam, read-out: MIC (+tazo)
  MIC: 3 µM
P. aeruginosa ISR-14-004; [18]
  MIC: 50 µM
P. aeruginosa ISR-14-004; Pseudomonas aeruginosa, ISR14004, P. aeruginosa ISR-14-004 (clinical isolate), in combination with tazobactam, read-out: MIC (+tazo)
  MIC: 0.4 µM
P. aeruginosa KW799/wt; [19]
  MIC: 1.6 µM (≈ 0.697 µg/mL)
Proteus mirabilis X235; [20]
  MIC: 0.05 µM (≈ 0.0218 µg/mL)
S. aureus SG 511; [21]
  MIC: > 50 µM
[5]; [22]
  MIC: 0.1 µM (≈ 0.0435 µg/mL)
A. baumannii ARC 5079; Acinetobacter baumannii, ARC5079, A. baumannii ARC 5079, compound alone, MH2 broth with 160 μM bipyridyl added, read-out: MIC
  MIC: 25 to 50 µM
[6]; [11]
  MIC: 50 µM
A.baumannii ISR14-005; [23]
  MIC: > 50 µM
A.baumannii ISR14-005; Acinetobacter baumannii, ISR14005, A. baumannii ISR14-005 (clinical isolate), in combination with tazobactam, read-out: MIC (+tazo)
  MIC: 50 µM
[8]
  effect of combination with tazobactam on activity (in words): minimal effects

## COC(=O)CSCC1C(NC(=O)Cc2ccccc2)C(=O)N1S(=O)(=O)[O-].[K+] (stereo not shown) [Compound 24, Potassium 2-(((2-methoxy-2-oxoethyl)thio)methyl)-4-oxo-3-(2-phenylacetamido) azetidine-1-sulfonate]
[9]; panel of Gram-negative and Gram-positive bacteria
  antibacterial activity (in words): not active
[9]; tested strains
  antibacterial activity (MIC): > 50 µM

## CO/N=C(\C(=O)NC1C(=O)N(S(=O)(=O)O)[C@H]1CSCCN)c1cnc(N)s1 (stereo partly shown) [Compound 35, (E)-3-(2-(2-aminothiazol-5-yl)-2-(methoxyimino)acetamido)-2-(((2-ammonioethyl)thio)methyl)-4-oxoazetidine-1-sulfonate, potassium salt]
A. baumannii ATCC 17961; A. baumannii ATCC 17961, MH2 broth with 160 μM bipyridyl added, read-out: MIC
  MIC: 50 µM
[1]; A. baumannii ATCC BAA 1797, MH2 broth with 160 μM bipyridyl added, read-out: MIC
  MIC: > 50 µM
[2]
  MIC: 50 µM
[3]; [13]
  MIC: 12.5 µM
E. coli DCO; [14]
  MIC: 25 µM
[4]; [15]
  MIC: 0.2 µM
P. aeruginosa 01; [16]
  MIC: > 50 µM
P. aeruginosa ARC 3502; ARC3502, compound alone, MH2 broth with 160 μM bipyridyl added
  MIC: > 50 µM
P. aeruginosa ARC 3506; P. aeruginosa ARC 3506, compound alone, MH2 broth with 160 μM bipyridyl added, read-out: MIC
  MIC: > 50 µM
P. aeruginosa ISR-14-003; [17]
  MIC: > 50 µM
P. aeruginosa ISR-14-004; [18]
  MIC: > 50 µM
P. aeruginosa KW799/wt; [19]
  MIC: > 50 µM
Proteus mirabilis X235; [20]
  MIC: 12.5 µM
S. aureus SG 511; [21]
  MIC: > 50 µM
[5]; [22]
  MIC: 12.5 µM
A.baumannii ISR14-005; [23]
  MIC: > 50 µM
Gram-negative bacteria
  antibacterial activity (in words): moderately active

## C[C@]1(Cn2ccnn2)[C@H](C(=O)O)N2C(=O)C[C@H]2S1(=O)=O [Tazobactam, tazobactam, reference compound]
B. dolosa AU0018; [12]
  MIC: > 50 µM
P. aeruginosa ARC 3502; ARC3502, tazobactam alone
  MIC: > 10 µg/mL
P. aeruginosa ARC 3506; P. aeruginosa ARC 3506, tazobactam alone, read-out: MIC
  MIC: > 10 µg/mL
P. aeruginosa ISR-14-003; Pseudomonas aeruginosa, ISR14003, P. aeruginosa ISR-14-003, tazobactam alone, read-out: MIC
  MIC: > 20 µg/mL
P. aeruginosa ISR-14-004; Pseudomonas aeruginosa, ISR14004, P. aeruginosa ISR-14-004, tazobactam alone, read-out: MIC
  MIC: > 20 µg/mL
A. baumannii ARC 5079; Acinetobacter baumannii, ARC5079, A. baumannii ARC 5079, tazobactam alone, read-out: MIC
  MIC: > 10 µg/mL
[6]; [11]
  MIC: < 10 µg/mL
[7]; A. baumannii ATCC BAA 1793, tazobactam alone @ 10 μg/ml
  inhibition: very slight
[10]
  inhibition: very slight
A.baumannii ISR14-005; Acinetobacter baumannii, ISR14005, A. baumannii ISR14-005, tazobactam alone, read-out: MIC
  MIC: > 20 µg/mL

## Polymixin B [reference compound]
P. aeruginosa ISR-14-003; P. aeruginosa ISR-14-003 (clinical isolate), compound alone, MH2 broth with 160 μM bipyridyl added, read-out: MIC
  MIC: 0.1 µM
P. aeruginosa ISR-14-004; P. aeruginosa ISR-14-004 (clinical isolate), compound alone, MH2 broth with 160 μM bipyridyl added, read-out: MIC
  MIC: 0.05 µM
A. baumannii ARC 5079; A. baumannii ARC 5079, compound alone, MH2 broth with 160 μM bipyridyl added
  MIC: <0.025 to 0.1 µM
[6]; A. baumannii ATCC 17978-PNT-320 (cephalosporinase producing organism), MH2 broth with 160 μM bipyridyl added
  MIC: <0.025 µM
[7]; A. baumannii ATCC BAA 1793, MH2 broth with 160 μM bipyridyl added
  MIC: <0.025 µM
A.baumannii ISR14-005; A. baumannii ISR14-005 (clinical isolate), compound alone, MH2 broth with 160 μM bipyridyl added, read-out: MIC
  MIC: <0.025 µM
Gram-negative bacteria
  antibacterial activity (in words): excellent activity
